From ChEMBL document CHEMBL5052821, “Galactokinase inhibitors for the treatment and prevention of associated diseases and disorders” (2019)
The source made the active and inactive calls. The rule behind the calls is not given here.

Test system: HEK293
Assay: Cytotoxicity against human HEK293 cells measured after 48 hrs by Cell Titer Glo assay
Assay type: toxicity, cell-based
Settings: hek293, 48 h

Row | Structure (SMILES) | Activity
1 | O=C1CCCC2=C1C1(CCCC1)N=C(Nc1nc3cc(Cl)ccc3o1)N2 | Non-Toxic
2 | Cc1ccc2nc(NC3=NC4(CCCC4)C4=C(CCCC4=O)N3)oc2c1 | Non-Toxic
3 | CC1(C)CC(=O)C2=C(C1)NC(Nc1nc3ccccc3o1)=NC21CCCC1 | Non-Toxic
4 | O=C1CCCC2=C1C1(CCC1)N=C(Nc1nc3ccccc3o1)N2 | Non-Toxic
5 | Cc1ccc2oc(NC3=NC4(CCCC4)C4=C(CCCC4=O)N3)nc2c1 | Non-Toxic
6 | O=C1CCCC2=C1C1(CCCC1)N=C(Nc1nc3ccccc3o1)N2 | Non-Toxic
7 | O=C1CCC2=C1C1(CCCC1)N=C(Nc1nc3ccccc3o1)N2 | Non-Toxic
8 | Cn1c(NC2=NC3(CCCC3)C3=C(CCCC3=O)N2)nc2ccccc21 | Non-Toxic
9 | O=C1CCCC2=C1C1(CCCC1)N=C(Nc1nc3cc4ccccc4cc3o1)N2 | Non-Toxic
10 | O=C1CCCC2=C1C1(CCCC1)N=C(Nc1nc3cc(Br)ccc3o1)N2 | Non-Toxic
11 | O=C1CC(c2ccccc2)CC2=C1C1(CCCCC1)N=C(Nc1nc3ccccc3o1)N2 (stereo not given) | Non-Toxic

Test system: Bacteria
Assay: Inhibition of bacterial CDP-ME kinase assessed as ATP depletion up to 57 uM measured by bioluminescent kinase Glo assay
Settings: dose microM <=57

Row | Structure (SMILES) | inhibition
12 | O=C1CCCC2=C1C(c1cccc(Cl)c1)N=C(Nc1nc3ccccc3o1)N2 (stereo not given) | inactive
13 | O=C1CCCC2=C1C(c1ccccc1I)N=C(Nc1nc3ccccc3o1)N2 (stereo not given) | inactive
14 | CC1=C(C(=O)Nc2ccon2)C2(CCCC2)N=C(Nc2nc3ccccc3o2)N1 | inactive
15 | CC1=C(C(=O)Nc2noc3ccccc23)C(c2nn(C)cc2Cl)N=C(Nc2nc3ccccc3o2)N1 (stereo not given) | inactive
16 | O=C1CCCC2=C1C1(CCCC1)N=C(Nc1nc3cc(Cl)ccc3o1)N2 | inactive
17 | CC1=C(C(=O)Nc2ccc(C)cc2)C(c2ccccc2Br)N=C(Nc2nc3ccccc3o2)N1 (stereo not given) | inactive
18 | CNC(=O)C1=C(C)NC(Nc2nc3ccccc3o2)=NC12CCCC2 | inactive
19 | O=C1CCCC2=C1C(c1ncccc1Br)N=C(Nc1nc3ccccc3o1)N2 (stereo not given) | inactive
20 | CC1=C(C(=O)Nc2nccs2)C(c2ccccc2Br)N=C(Nc2nc3ccccc3o2)N1 (stereo not given) | inactive
21 | O=C1CCCC2=C1C(c1c(Cl)cccc1Cl)N=C(Nc1nc3ccccc3o1)N2 (stereo not given) | inactive
22 | CC1=C(C(=O)NC2CC2)C(c2nn(C)cc2Cl)N=C(Nc2nc3ccccc3o2)N1 (stereo not given) | inactive
23 | Cc1cccc(C2N=C(Nc3nc4ccccc4o3)NC3=C2C(=O)CCC3)c1 (stereo not given) | inactive
24 | O=C1CCCC2=C1C(c1ccccc1C(F)(F)F)N=C(Nc1nc3ccccc3o1)N2 (stereo not given) | inactive
25 | O=C1CCCC2=C1C(c1ccc(F)cc1)N=C(Nc1nc3ccccc3o1)N2 (stereo not given) | inactive
26 | O=C1CCCC2=C1C(c1ncccc1C(F)(F)F)N=C(Nc1nc3ccccc3o1)N2 (stereo not given) | inactive
27 | CC1=C(C(=O)Nc2ccccc2C)C(c2ccccc2Br)N=C(Nc2nc3ccccc3o2)N1 (stereo not given) | inactive
28 | CC1=C(C(=O)N(C)C)C(c2ccccc2Br)N=C(Nc2nc3ccccc3o2)N1 (stereo not given) | inactive
29 | CCC1CCC2(C1)N=C(Nc1nc3ccccc3o1)NC1=C2C(=O)CCC1 (stereo not given) | inactive
30 | CC1=C(C(=O)Nc2ccc(Cl)cc2)C(c2ccccc2Br)N=C(Nc2nc3ccccc3o2)N1 (stereo not given) | inactive
31 | Cc1ccc2nc(NC3=NC4(CCCC4)C4=C(CCCC4=O)N3)oc2c1 | inactive
32 | CC1(C)N=C(Nc2nc3ccccc3o2)NC2=C1C(=O)CCC2 | inactive
33 | CC1=C(C(=O)NC2CCCC2)C(c2n[nH]cc2Cl)N=C(Nc2nc3ccccc3o2)N1 (stereo not given) | inactive
34 | CC1(C)CC(=O)C2=C(C1)NC(Nc1nc3ccccc3o1)=NC21CCCC1 | inactive

Row | Structure (SMILES) | inhibition
35 | O=C1CCCC2=C1C(c1ccccc1)N=C(Nc1nc3ccccc3o1)N2 (stereo not given) | inactive
36 | CC1=C(C(=O)NCc2ccccc2)C(c2ccccc2Br)N=C(Nc2nc3ccccc3o2)N1 (stereo not given) | inactive
37 | CC1=C(C(=O)NC2CCCCC2)C(c2ccccc2Br)N=C(Nc2nc3ccccc3o2)N1 (stereo not given) | inactive
38 | O=C1CCCC2=C1C1(CCCC1)N=C(Nc1nc3ccccc3n1Cc1ccccc1)N2 | inactive
39 | O=C1CCCC2=C1C(c1ccncc1Cl)N=C(Nc1nc3ccccc3o1)N2 (stereo not given) | inactive
40 | CC1=C(C(=O)Nc2nc3ccccc3s2)C2(CCCC2)N=C(Nc2nc3ccccc3o2)N1 | inactive
41 | O=C1CCCC2=C1C(c1n[nH]cc1Cl)NC(Nc1nc3ccccc3o1)=N2 (stereo not given) | inactive
42 | O=C1CCCC2=C1C1(CCC1)N=C(Nc1nc3ccccc3o1)N2 | inactive
43 | O=C1CCC2=C1C(c1ccccc1Cl)N=C(Nc1nc3ccccc3o1)N2 (stereo not given) | inactive
44 | CC1=C(C(=O)Nc2ccon2)C(c2ccccc2Br)N=C(Nc2nc3ccccc3o2)N1 (stereo not given) | inactive
45 | COc1ccc(NC(=O)C2=C(C)NC(Nc3nc4ccccc4o3)=NC2c2ccccc2Br)cc1 (stereo not given) | inactive
46 | O=C1CCCC2=C1C1(CCCOC1)N=C(Nc1nc3ccccc3o1)N2 (stereo not given) | inactive
47 | O=C1CCCC2=C1C(c1ccncc1)N=C(Nc1nc3ccccc3o1)N2 (stereo not given) | inactive
48 | Cc1ccsc1C1N=C(Nc2nc3ccccc3o2)NC2=C1C(=O)CCC2 (stereo not given) | inactive
49 | COc1ccccc1C1N=C(Nc2nc3ccccc3o2)NC2=C1C(=O)CCC2 (stereo not given) | inactive
50 | O=C1CCCC2=C1C1(CCOCC1)N=C(Nc1nc3ccccc3o1)N2 | inactive
51 | COc1cccc(C2N=C(Nc3nc4ccccc4o3)NC3=C2C(=O)CCC3)c1 (stereo not given) | inactive
52 | CC1=C(C(=O)Nc2ccccc2)C(c2ccccc2Br)N=C(Nc2nc3ccccc3o2)N1 (stereo not given) | inactive
53 | CNC(=O)C1=C(C)NC(Nc2nc3ccccc3o2)=NC1c1n[nH]cc1Cl (stereo not given) | inactive
54 | COc1ccc(C2N=C(Nc3nc4ccccc4o3)NC3=C2C(=O)CCC3)cc1 (stereo not given) | inactive
55 | Cc1ccc2oc(NC3=NC4(CCCC4)C4=C(CCCC4=O)N3)nc2c1 | inactive
56 | CC1=C(C(=O)Nc2nc3ccccc3s2)C(c2n[nH]cc2Cl)N=C(Nc2nc3ccccc3o2)N1 (stereo not given) | inactive
57 | O=C1CCCC2=C1C(c1ccc(Cl)cc1)N=C(Nc1nc3ccccc3o1)N2 (stereo not given) | inactive

Row | Structure (SMILES) | inhibition
58 | O=C1CCCC2=C1C1(CCCC1)N=C(Nc1nc3ccccc3o1)N2 | inactive
59 | O=C1CCCC2=C1[C@@]1(CCC(c3ccccc3)C1)N=C(Nc1nc3ccccc3o1)N2 (stereo not given in full) | inactive
60 | O=C1CCCC2=C1C(c1cnccc1C(F)(F)F)N=C(Nc1nc3ccccc3o1)N2 (stereo not given) | inactive
61 | O=C1CCCC2=C1C(c1cccc(C(F)(F)F)c1)N=C(Nc1nc3ccccc3o1)N2 (stereo not given) | inactive
62 | Cn1cc(Br)c(C2N=C(Nc3nc4ccccc4o3)NC3=C2C(=O)CCC3)n1 (stereo not given) | inactive
63 | O=C1CCCC2=C1C1(CCS(=O)(=O)C1)N=C(Nc1nc3ccccc3o1)N2 (stereo not given) | inactive
64 | O=C1CCCC2=C1C(c1cccnc1Br)N=C(Nc1nc3ccccc3o1)N2 (stereo not given) | inactive
65 | O=C1CCCC2=C1C1(CCSCC1)N=C(Nc1nc3ccccc3o1)N2 | inactive
66 | CC1(C)CC(=O)C2=C(C1)NC(Nc1nc3ccccc3o1)=NC21CCCCC1 | inactive
67 | CC1=C(C(=O)Nc2nncs2)C(c2nn(C)cc2Cl)N=C(Nc2nc3ccccc3o2)N1 (stereo not given) | inactive
68 | O=C1CCCC2=C1C(c1ccncc1Br)N=C(Nc1nc3ccccc3o1)N2 (stereo not given) | inactive
69 | O=C1CCC2=C1C1(CCCC1)N=C(Nc1nc3ccccc3o1)N2 | inactive
70 | Cc1cc(C2N=C(Nc3nc4ccccc4o3)NC3=C2C(=O)CCC3)n[nH]1 (stereo not given) | inactive
71 | CC1=C(C(=O)Nc2nc3ccccc3s2)C(c2nn(C)cc2Cl)N=C(Nc2nc3ccccc3o2)N1 (stereo not given) | inactive
72 | Cn1c(NC2=NC3(CCCC3)C3=C(CCCC3=O)N2)nc2ccccc21 | inactive
73 | CC1CCC2(C1)N=C(Nc1nc3ccccc3o1)NC1=C2C(=O)CCC1 (stereo not given) | inactive
74 | O=C1CCCC2=C1C1(CCCC1)N=C(Nc1nc3cc4ccccc4cc3o1)N2 | inactive
75 | CC1=C(C(=O)N(C)c2ccccc2C)C(c2ccccc2Br)N=C(Nc2nc3ccccc3o2)N1 (stereo not given) | inactive
76 | O=C1CCCC2=C1C1(CCCC1)N=C(Nc1nc3cc(Br)ccc3o1)N2 | inactive
77 | O=C1CCCC2=C1C(c1n[nH]cc1Br)N=C(Nc1nc3ccccc3o1)N2 (stereo not given) | inactive
78 | O=C1CCCC2=C1C(c1ccccc1Cl)N=C(Nc1nc3ccccc3o1)N2 (stereo not given) | inactive
79 | CC1=C(C(=O)Nc2nc3ccccc3o2)C2(CCCC2)N=C(Nc2nc3ccccc3o2)N1 | inactive
80 | O=C1CCCC2=C1C(c1cccnc1Cl)N=C(Nc1nc3ccccc3o1)N2 (stereo not given) | inactive

Row | Structure (SMILES) | inhibition
81 | CC1=C(C(=O)Nc2ccon2)C(c2nn(C)cc2Cl)N=C(Nc2nc3ccccc3o2)N1 (stereo not given) | inactive
82 | O=C1CC(c2ccccc2)CC2=C1C1(CCCC1)N=C(Nc1nc3ccccc3o1)N2 (stereo not given) | inactive
83 | COc1ccccc1NC(=O)C1=C(C)NC(Nc2nc3ccccc3o2)=NC1c1ccccc1Br (stereo not given) | inactive
84 | Cc1ccc(C2N=C(Nc3nc4ccccc4o3)NC3=C2C(=O)CCC3)s1 (stereo not given) | inactive
85 | Cn1ncc(Cl)c1C1N=C(Nc2nc3ccccc3o2)NC2=C1C(=O)CCC2 (stereo not given) | inactive
86 | CNC(=O)C1=C(C)NC(Nc2nc3ccccc3o2)=NC1c1nn(C)cc1Cl (stereo not given) | inactive
87 | CC1=C(C(=O)Nc2nnc(-c3ccccc3)s2)C(c2n[nH]cc2Cl)N=C(Nc2nc3ccccc3o2)N1 (stereo not given) | inactive
88 | CC1=C(C(=O)NC2CC2)C(c2n[nH]cc2Cl)N=C(Nc2nc3ccccc3o2)N1 (stereo not given) | inactive
89 | O=C1CCCC2=C1C(c1cccc(F)c1)N=C(Nc1nc3ccccc3o1)N2 (stereo not given) | inactive
90 | O=C1CCCC2=C1C1(CCCC1)N=C(Nc1nc3cc(-c4ccccc4)ccc3o1)N2 | inactive
91 | Cc1ccc(C2N=C(Nc3nc4ccccc4o3)NC3=C2C(=O)CCC3)cc1 (stereo not given) | inactive
92 | O=C1CCCC2=C1C(c1cccnc1)N=C(Nc1nc3ccccc3o1)N2 (stereo not given) | inactive
93 | CC1=C(C(=O)n2ccc3ccccc32)C(c2ccccc2Br)N=C(Nc2nc3ccccc3o2)N1 (stereo not given) | inactive
94 | O=C1CC(c2ccccc2)CC2=C1C1(CCCCC1)N=C(Nc1nc3ccccc3o1)N2 (stereo not given) | inactive
95 | CN(C)c1ccc(C2N=C(Nc3nc4ccccc4o3)NC3=C2C(=O)CCC3)cc1 (stereo not given) | inactive
96 | CC1=C(C(=O)Nc2nncs2)C2(CCCC2)N=C(Nc2nc3ccccc3o2)N1 | inactive
97 | CC1=C(C(=O)Nc2nncs2)C(c2ccccc2Br)N=C(Nc2nc3ccccc3o2)N1 (stereo not given) | inactive
98 | O=C1CCCC2=C1C(c1ccn[nH]1)N=C(Nc1nc3ccccc3o1)N2 (stereo not given) | inactive
99 | O=C1CCCC2=C1C(c1ccccc1Br)N=C(Nc1nc3ccccc3o1)N2 (stereo not given) | inactive
100 | O=C1CCCC2=C1C1(CCSC1)N=C(Nc1nc3ccccc3o1)N2 (stereo not given) | inactive
